Here are results for twelve compounds from publication PMC8512853, “Synthesis, Bioactivity, Pharmacokinetic and Biomimetic Properties of Multi-Substituted Coumarin Derivatives” (Molecules, 2021).

A short description of series [1]: ABTS radical scavenging assay. As to conditions: 6 min. As to the method: The ABTS radical cation scavenging assay is a decolorization assay frequently used as an antioxidant activity estimation protocol. […] The absorbance is measured at 734 nm and the antioxidant capacity is compared to a standard antioxidant solution, such as ascorbic acid.
For the evaluation of antioxidant activity, the scavenging capacities of all samples were measured via the ABTS assay, as previously described by Kontogiorgis et al. with some modifications. Briefly, an ethanolic standard ABTS solution (7 mM) was prepared by the addition of ABTS salt and potassium persulfate. […] Each sample was diluted in DMSO and tested in triplicate. The tested mixture contained 10–20 µL of sample and 990–980 µL of the ABTS solution, for a total volume of 1 ml. Blank samples contained equal amounts of DMSO instead of the coumarin analogues, and ascorbic acid was used as a reference sample for the final evaluation of the ABTS scavenging capacity. All mixtures were stored at room temperature to allow decolorization and measured after 6 min. The percentage reduction of the ABTS radical was evaluated according to the following Equation (3):(3) % Reduction=Control OD (mean)−Sample OD (mean)/Control OD (mean)×100

Series [2] in a line: Inhibition of AAPH induced linoleic acid oxidation (lipid peroxidation). From the text:
AAPH induced linoleic acid oxidation has been developed as a quick and reliable antioxidant activity assay. It is based on the inhibition of linoleic acid oxidation, initiated by the thermal free radical producer 2,2′-azobis(2-amidinopropane) dihydrochloride (AAPH), providing a measure of how efficiently antioxidants protect against lipid oxidation in vitro. Oxidation of exogenous linoleic acid by AAPH is followed by UV spectrophotometry at 234 nm in a highly diluted sample [38].
For the reference sample in a UV cuvette, 10 μL of the test sample (100 μM diluted in DMSO), 10 μL linoleic acid (LA) (16 mM), and buffer solution (pH 7.4) were added to a final volume of 1ml. For the measurement sample, in a UV cuvette, 10 μL of test sample, 50 μL AAPH (40 mM), 10 μL LA, and buffer solution were added to a final volume of 1 mL. Standard and blank samples were prepared in the same way using DMSO (solvent) instead of the tested coumarin analogues. The absorbance was measured after 2 min at 37 °C at 234 nm. Results were obtained via the following Equation (5):(5) %Inhibition=(Standard−Blank)−(Reference Sample−Measurement Sample)/(Standard−Blank) × 100

The test system of the next series is HaCaT cells. As to the kind of experiment: DCF-DA assay (intracellular ROS after H2O2). As to conditions: H2O2 treatment, 24 h; for inhibition at 100 µM: Homo sapiens, 100 μΜ, read-out: DCFDA Assay, % (100 μΜ). Format: cell-based, human. From the text:
In the setting of evaluating bioactive compounds in terms of antioxidant capacity in various cell lines, DCF-DA is the most widely used assay for the detection of intracellular H2O2 and oxidative stress. DCF-DA is cell-permeable and is hydrolyzed intracellularly to the DCFH carboxylate anion, which is retained in the cell.
DCFDA is a fluorescent dye that measures the activity of hydroxyl radicals, peroxyl radicals, and other reactive oxygen species (ROS) within the cell. The DCFDA analysis protocol is based on the diffusion of DCFDA into the cell. It is then deacetylated from cellular esterases to a non-fluorescent compound, which is later oxidized by ROS to 2’,7’ -dichlorofluoroscein (DCF). The produced compound (DCF) is fluorescent and is detected by fluorescence spectroscopy at 485/535 nm (excitation/emission).
For the experimental procedure a standard solution of DCF-DA (20mM) in DMSO was prepared which was stored in the dark (−20 °C) until use. In a 96-well plate, cells were cultured to a density of 3 × 10^4 cells/well.
The cells remained in the incubator (37 °C, 5% CO2) for 24 h, after which an appropriate amount of H2O2 (2 mM) was added and the dish was returned for incubation for the next 2 h. This was followed by the addition of the test substances (100μM) and incubation for 24 h. At the end of the treatment time, all wells were washed with PBS, and DCF-DA solution (working concentration: 10 μM) (in 200 μL of nutrient) was added and incubated for 40 min.
After incubation, the medium with the DCF-DA was removed and replaced with FBS-free DMEM. The measurement of the […] was made immediately after that in a plate reader at 495/530 nm (excitation/emission).
All samples were tested in triplicates, against a control (without effects), blank (without cells), and positive control (standard 100 μM Ascorbic acid solution was used).
The percentage of antioxidant capacity (%) was calculated according to the following Equation (6) evaluating the presence of ROS [42]:(6) % AI=( OD Sample 530 nm−Blank)−(OD Control 530 nm−Blank)/(OD Control 530 nm−Blank) × 100

Series [3] can be described thus: IAM chromatography (IAM.PC.DD.2 column) and estimated human oral absorption. Format: in vitro ADME. The settings on record: for %HOA estimated human oral absorption: Equation (1) from logkw and physicochemical properties; for logkw (IAM retention factor): pH 7.40, IAM.PC.DD.2, intercept at pure aqueous phase. Here is the method: The immobilized artificial membrane (IAM) chromatographic behavior of the 25 novel coumarin derivatives was studied. IAM stationary phases consisting of monolayers of phospholipids (e.g., phosphatidylcholine, PC) immobilized on a propylamine–silica support can simulate interactions of chemicals with cell membranes.
Using an IAM.PC.DD2 column (Regis Technologies) as the stationary phase with PBS as the mobile phase at pH = 7.40, and a flow rate of 3 mL/min in the presence of acetonitrile fractions (C%) of 10%, 15%, 20%, 25%, and 30%, a logkC% value was obtained via the retention time for each concentration of CH3CN. Retention factors were then used to plot logkC% as a function of acetonitrile fraction. The intercept of the linear regression corresponds to the logkw, corresponding to pure aqueous phase.
(1) % HOA=100/1+10^−(2.17+0.88*logkw−0.006*MW−0.83*A−0.53*F^*++1.18*F^*−)
The physicochemical and biomimetic properties of the new coumarin analogues were studied using liquid chromatography (HPLC) in 220–230 nm Two types of chromatographic columns were used: (i) immobilized artificial membrane (IAM) ([…].PC.DD.2, Regis Technologies) column and (ii) human serum albumin (HSA) (CHIRAL PAK) column.
The training set consisted of 25 neutral and slightly acidic compounds. Their IAM retention factors were measured at pH 7.40 on a IAM.PC.DD.2 column. The mobile phase consisted of acetonitrile solvent (CH3CN) in various concentrations (10%, 15%, 20%, 25%, 30%) and a flow rate of 3 mL/min was selected. Their HSA retention factors were measured at pH 7.00 on HSA column. The mobile phase consisted of acetonitrile solvent (CH3CN) in 10% concentration and a flow rate of 1 mL/min was selected.
The different pH values (7.00 for HSA and 7.40 for IAM) were measured with an electronic pH meter MP125 and were achieved by preparing suitable buffers of phosphates and chlorides (0.12 g KH2PO4, 0.72 g Na2HPO4·2H2O, 4.00 g NaCl and 0.10 g KCl). Sodium citrate solution was used to determine the dead time, which was deducted from the results at the end of measurements. The elution time of each coumarin analogue was measured at least three times. Retention times were converted into logk values, which represent the logarithm of the retention indexes, using Equation (8). (8) logk=log(tr−t0/t0) where tr is the retention time of the coumarin derivative and t0 is the dead time.

On to `CC(=O)Oc1ccc(-c2c(C)c3cc(Br)ccc3oc2=O)cc1OC(C)=O` [Compound 3m, 3-(4,5-diacetyloxyphenyl)-6-bromo-4-methyl-chromen-2-one], for which the “ABTS^•+ % (100 μΜ)” value in series [1] is listed as “no”. Moreover, in series [2], the IC50 is 37.1 µM. Moreover, in the series on HaCaT cells, the “DCFDA Assay, % (100 μΜ)” value is listed as “no”. For the same compound, in series [3], the “%HOA estimated human oral absorption” value is given as 99.6% and the “logkw (IAM retention factor)” value was 3.21.
With `CC(=O)Oc1ccc(-c2c(C)c3cc(Cl)ccc3oc2=O)cc1OC(C)=O` [Compound 3n, 3-(4,5-diacetyloxyphenyl)-6-chloro-4-methyl-chromen-2-one], the “ABTS^•+ % (100 μΜ)” value in series [1] is reported as “no”. In series [2], this compound had an IC50 of 84.3 µM. In addition, in the series on HaCaT cells, the “DCFDA Assay, % (100 μΜ)” value is reported as “no”. Further, in series [3], the “%HOA estimated human oral absorption” value is 99.7% and the “logkw (IAM retention factor)” value is 3.04.
For the compound `CC(=O)Oc1ccc(-c2c(C)c3cc(Br)cc(Br)c3oc2=O)cc1OC(C)=O` [Compound 3o, 3-(4,5-diacetyloxyphenyl)-6,8-dibromo-4-methyl-chromen-2-one], the “ABTS^•+ % (100 μΜ)” value in series [1] is reported as “no”. The same compound showed an IC50 in series [2] of 77.2 µM. Further, the inhibition at 100 µM with HaCaT cells was 25.7%. In series [3], the “%HOA estimated human oral absorption” value is recorded as 99.6% and the “logkw (IAM retention factor)” value was 3.79.
Turning to `Cc1c(-c2ccccc2Cl)c(=O)oc2cccc(O)c12` [Compound 4a, 3-(2-chlorophenyl)-5-hydroxy-4-methyl-chromen-2-one], the “ABTS^•+ % (100 μΜ)” value in series [1] was 56.5%. For the same compound, the “AAPH % inhibition (100 μΜ)” value in series [2] is recorded as “no”. Further, the inhibition at 100 µM with HaCaT cells is 0%. Further, in series [3], the “%HOA estimated human oral absorption” value was 100% and the “logkw (IAM retention factor)” value was 4.09.
The matching figures for `Cc1c(-c2cccc(Cl)c2)c(=O)oc2cccc(O)c12` [Compound 4b, 3-(3-chlorophenyl)-5-hydroxy-4-methyl-chromen-2-one]: 49.2%, “no”, 27.4%, 99.9% and 3.73.
Consider `Cc1c(-c2ccc(Cl)cc2)c(=O)oc2cccc(O)c12` [Compound 4c, 3-(4-chlorophenyl)-5-hydroxy-4-methyl-chromen-2-one], for which the “ABTS^•+ % (100 μΜ)” value in series [1] is on record as 65.2%. For the same compound, the IC50 in series [2] stood at 86.6 µM. The “DCFDA Assay, % (100 μΜ)” value in the series with HaCaT cells is recorded as “no”. Moreover, in series [3], the “%HOA estimated human oral absorption” value is recorded as 100% and the “logkw (IAM retention factor)” value is 4.53.
Take `Cc1c(-c2ccccc2F)c(=O)oc2cccc(O)c12` [Compound 4d, 3-(2-fluorophenyl)-5-hydroxy-4-methyl-chromen-2-one]: in series [1], the “ABTS^•+ % (100 μΜ)” value is 73.3%. Also, in series [2], the “AAPH % inhibition (100 μΜ)” value is given as 0.0%. Further, the “DCFDA Assay, % (100 μΜ)” value with HaCaT cells was “no”. For the same compound, in series [3], the “%HOA estimated human oral absorption” value is reported as 100% and the “logkw (IAM retention factor)” value is recorded as 4.69.
Taken in the same sequence, the figures for `Cc1c(-c2cccc(F)c2)c(=O)oc2cccc(O)c12` [Compound 4e, 3-(3-fluorophenyl)-5-hydroxy-4-methyl-chromen-2-one] were 69.2%, 31.0%, “no”, 99.9% and 3.23.
With `Cc1c(-c2ccc(F)cc2)c(=O)oc2cccc(O)c12` [Compound 4f, 3-(4-fluorophenyl)-5-hydroxy-4-methyl-chromen-2-one], in series [1], the “ABTS^•+ % (100 μΜ)” value worked out at 64.2%. This compound yielded an IC50 in series [2] of 86.8 µM. The “DCFDA Assay, % (100 μΜ)” value in the series on HaCaT cells was “no”. For the same compound, in series [3], the “%HOA estimated human oral absorption” value is reported as 99.7% and the “logkw (IAM retention factor)” value was 2.62.
`Cc1c(-c2ccc(O)cc2)c(=O)oc2ccccc12` [Compound 4h, 3-(4-hydroxyphenyl)-4-methyl-chromen-2-one]: in series [1], the “ABTS^•+ % (100 μΜ)” value turned out to be 8.6%. For the same compound, the “AAPH % inhibition (100 μΜ)” value in series [2] is given as “no”. For the same compound, the “DCFDA Assay, % (100 μΜ)” value in the series on HaCaT cells was “no”. Further, in series [3], the “%HOA estimated human oral absorption” value was 99.8% and the “logkw (IAM retention factor)” value is given as 3.34.
On to `Cc1c(-c2ccc(O)cc2)c(=O)oc2ccc(Br)cc12` [Compound 4i, 6-bromo-3-(4-hydroxyphenyl)-4-methyl-chromen-2-one], for which the “ABTS^•+ % (100 μΜ)” value in series [1] was “no”. Also, the midpoint of inhibition in series [2], the IC50, lay at 70.7 µM. In addition, the inhibition at 100 µM in the series with HaCaT cells came to 100%. Besides, in series [3], the “%HOA estimated human oral absorption” value was 99.9% and the “logkw (IAM retention factor)” value is on record as 3.23.
Turning to `Cc1c(-c2ccc(O)cc2)c(=O)oc2ccc(Cl)cc12` [Compound 4j, 6-chloro-3-(4-hydroxyphenyl)-4-methyl-chromen-2-one], the “ABTS^•+ % (100 μΜ)” value in series [1] is recorded as “no”. In series [2], the “AAPH % inhibition (100 μΜ)” value turned out to be 36.1%. The inhibition at 100 µM in the series with HaCaT cells was 2.1%. In addition, in series [3], the “%HOA estimated human oral absorption” value is given as 99.5% and the “logkw (IAM retention factor)” value is 3.41.
